Reference: patent US20210269483A1, “PEPTIDE COMPOUNDS” (ULTUPHARMA AB, priority 2018, published 2021)
In brackets after ≈: the same amount, converted by molar mass. Like-named read-outs stand apart in the source and are kept apart here. One block for each compound: values may come before it. Starred links: 1 amine or outer side, 2 acyl side, 3 side chain; linkers in the order of their positions; H or OH if unused. Positions of bridges follow the written chain, without caps; N, C: chain ends. Non-standard residues stand in square brackets, D forms with d. Residues, ends and D or L forms follow the SMILES beside them. X2 = CCCCCCC[C@H](CC(=O)[*:1])O[*:2]; Val(3-OH) = CC(C)(O)[C@H](N)C(=O)O; X1 = C/C=C(/N[*:1])C(=O)[*:2]; Dab = NCC[C@H](N)C(=O)O; Dap = NC[C@H](N)C(=O)O

What was measured:
A. baumannii [1] = type: cell-based, Acinetobacter baumannii
Excerpt: (§1) 2015. M7-A10. Methods for dilution antimicrobial susceptibility tests for bacteria that grow aerobically, 10th ed. Approved standard. CLSI, Wayne, Pa.).
(§2) A) In the broth micro-dilution method, the test media were either AM3 Broth (BD Difco Ltd) mixed with phosphate buffered saline (PBS, Amresco LLC, Solon, USA) in 1:4 ratio (E. colt A. baumannii, Enterobacter cloacae, Klebsiella pneumonia and P. aeruginosa), AM3 Broth mixed with PBS in 1:1 ratio (S. aureus) or Malt Extract (ME; 15 g Malt Extract Dico Ltd. in 1000 mL deionized H2O; Aspergillus fumigatus). Prior to MIC-tests, the bacterial cell concentration/fungal spore concentration was adjusted to between 1 and 5×10^5 cells/spores per mL. […] Afterwards, suspensions of pathogen cells in the appropriate medium were dispensed to the wells of microtiter plates and the growth of pathogens were monitored after 16 to 20 h of incubation at 37° C. in the dark. Positive control comprised respective pathogen cells suspended in untreated sterile appropriate media without addition of compounds(s) and negative control comprised the medium only. The MIC was defined as the lowest concentration of each compound with no visible growth of pathogen. All MIC tests were performed in duplicate and/or triplicate and repeated at least twice.

As. fumigatus = type: cell-based, Aspergillus fumigatus
Excerpt: as §1, §2

E. cloacae = type: cell-based, Enterobacter cloacae
Excerpt: as §1, §2

E. coli [2] = type: cell-based, Escherichia coli
Excerpt: as §1, §2

K. pneumoniae [3] = type: cell-based, Klebsiella pneumonia
Excerpt: as §1, §2

P. aeruginosa [4] = type: cell-based, Pseudomonas aeruginosa
Excerpt: as §1, §2

S. aureus [5] = type: cell-based, Staphylococcus aureus
Excerpt: as §1, §2

A. baumannii [6] = type: cell-based, Acinetobacter baumannii; remark: listed apart in the source
Excerpt: as §1

E. coli [7] = type: cell-based, Escherichia coli; conditions: E. coli EN003, D22 (lps mutant, hypersensitive), method B
Excerpt: as §1

K. pneumoniae [8] = type: cell-based, Klebsiella pneumonia; conditions: K. pneumoniae EN011, 1161486a (efflux-defective), method B
Excerpt: as §1

P. aeruginosa [9] = type: cell-based, Pseudomonas aeruginosa; conditions: P. aeruginosa EN005, PAO750 (efflux-defective), method B
Excerpt: as §1

S. aureus [10] = type: cell-based, Staphylococcus aureus; remark: listed apart in the source
Excerpt: as §1

[11] = Method: (§3) IC50, haemolysis rate and frequency of resistance (FoR, Table 4) was determined using standard protocols by different CROs.
HepG2 = system: HepG2
Method: as §3

[12] = system: carbapenem resistant strains of E. coil, P. aeruginosa and A. baumannii; type: cell-based
Excerpt: as §1

[13] = method A, only lower limit of concentration range shown ("16" means "16-32")

Compound: C/C=C1/NC(=O)[C@H](CCN)NC(=O)[C@H](CC(C)C)NC(=O)[C@H](CN)NC(=O)C[C@@H](CCCCCCC)OC(=O)[C@H](CC(=O)O)NC(=O)[C@H](C(C)(C)O)NC(=O)[C@@H](Cc2ccccc2)NC(=O)[C@H](CN)NC(=O)[C@H]([C@@H](C)O)NC1=O [U747, cyclo-((R)-3-hydroxydecanoyl-L-DAPA-L-Leu-L-DABA-(E)-ABA-L-Thr-L-DAPA-D-Phe-L-OHVal-L-Asp)] ([Dap]L[Dab][X1]T[Dap][dF][Val(3-OH)]D; linker N-C via X2)
- MIC (A. baumannii [1]): 1 to 2 µg/mL
- MIC A. baumannii LMG1041T (A. baumannii [1]): 1 µg/mL (≈ 0.895 µM)
- MIC (As. fumigatus): 16 to 32 µg/mL
- MIC (E. cloacae): 2 to 4 µg/mL
- MIC E. cloacae LMG2783T (E. cloacae): 2 µg/mL (≈ 1.79 µM)
- MIC (E. coli [2]): 2 to 4 µg/mL
- MIC E. coli LMG15862 (E. coli [2]): 2 µg/mL (≈ 1.79 µM)
- MIC (K. pneumoniae [3]): 2 to 4 µg/mL
- MIC K. pneumonia LMG20218 (K. pneumoniae [3]): 2 µg/mL (≈ 1.79 µM)
- MIC (P. aeruginosa [4]): 8 to 16 µg/mL
- MIC P. aeruginosa LMG6395 (P. aeruginosa [4]): 8 µg/mL (≈ 7.16 µM)
- MIC (S. aureus [5]): >32 µg/mL
- MIC S. aureus LMG15975 (S. aureus [5]): >32 µg/mL
- MIC (A. baumannii [6]): 1 to 2 µg/mL
- MIC (A. baumannii [6]; A. baumanii EN007, WT, method B): 8 µg/mL (≈ 7.16 µM)
- MIC (A. baumannii [6]; A. baumanii EN016, BM4454 8, method B): 8 µg/mL (≈ 7.16 µM)
- MIC (A. baumannii [6]; A. baumanii EN017, BM4652 (efflux-defective), method B): 8 µg/mL (≈ 7.16 µM)
- MIC (E. coli [7]): 4 µg/mL (≈ 3.58 µM)
- MIC (K. pneumoniae [8]): 8 µg/mL (≈ 7.16 µM)
- MIC (P. aeruginosa [9]): 32 µg/mL (≈ 28.6 µM)
- MIC (S. aureus [10]): 64 µg/mL (≈ 57.3 µM)
- Haemolysis rate ([11]; 100 μM): 0.6%
- haemolysis rates ([11]; in words): acceptable
- IC50 (HepG2) (HepG2): 50 µg/mL (≈ 44.8 µM)
- toxicity (IC50) against human cell lines (HepG2): low toxicity
- MICs against carbapenem resistant strains, highest [12]: 2 to 4 µg/mL
- MICs against carbapenem resistant strains, lowest [12]: 0.5 to 1 µg/mL

Compound: Table 2 cyclic lipodepsipeptide: R C8H17; DAPA-Leu-DABA-ABA-Thr-DAPA-Phe-OHVal-Asp [U754]
- MIC A. baumannii LMG1041T (A. baumannii [1]; [13]): 2 µg/mL
- MIC E. cloacae LMG2783T (E. cloacae; [13]): 4 µg/mL
- MIC E. coli LMG15862 (E. coli [2]; [13]): 4 µg/mL
- MIC K. pneumonia LMG20218 (K. pneumoniae [3]; [13]): 4 µg/mL
- MIC P. aeruginosa LMG6395 (P. aeruginosa [4]; [13]): 8 µg/mL
- MIC S. aureus LMG15975 (S. aureus [5]; [13]): 8 µg/mL
- IC50 (HepG2) (HepG2; HepG2, determined by a CRO): 20 µg/mL

Compound: Table 2 cyclic lipodepsipeptide: R C8H17; DAPA-Leu-DABA-ABA-Thr-DAPA-Phe-OHVal-Asp [U755a]
- MIC A. baumannii LMG1041T (A. baumannii [1]; [13]): 8 µg/mL
- MIC E. cloacae LMG2783T (E. cloacae; [13]): 8 µg/mL
- MIC E. coli LMG15862 (E. coli [2]; [13]): 8 µg/mL
- MIC K. pneumonia LMG20218 (K. pneumoniae [3]; [13]): 8 µg/mL
- MIC P. aeruginosa LMG6395 (P. aeruginosa [4]; [13]): 8 µg/mL
- MIC S. aureus LMG15975 (S. aureus [5]; [13]): 16 µg/mL
- IC50 (HepG2) (HepG2; HepG2, determined by a CRO): 39 µg/mL

Compound: Table 2 cyclic lipodepsipeptide: R C8H17; DAPA-Leu-DABA-ABA-Thr-DAPA-Phe-OHVal-Asp [U755b]
- MIC A. baumannii LMG1041T (A. baumannii [1]; [13]): 2 µg/mL
- MIC E. cloacae LMG2783T (E. cloacae; [13]): 2 µg/mL
- MIC E. coli LMG15862 (E. coli [2]; [13]): 8 µg/mL
- MIC K. pneumonia LMG20218 (K. pneumoniae [3]; [13]): 8 µg/mL
- MIC P. aeruginosa LMG6395 (P. aeruginosa [4]; [13]): 4 µg/mL
- MIC S. aureus LMG15975 (S. aureus [5]; [13]): 16 µg/mL
- IC50 (HepG2) (HepG2; HepG2, determined by a CRO): 34 µg/mL

Compound: Table 2 cyclic lipodepsipeptide: R C9H17; DAPA-Leu-DABA-ABA-Thr-Asn-Phe-Val-Asp [U826]
- MIC A. baumannii LMG1041T (A. baumannii [1]; [13]): 8 µg/mL
- MIC E. cloacae LMG2783T (E. cloacae; [13]): 16 µg/mL
- MIC E. coli LMG15862 (E. coli [2]; [13]): 8 µg/mL
- MIC K. pneumonia LMG20218 (K. pneumoniae [3]; [13]): >32 µg/mL
- MIC P. aeruginosa LMG6395 (P. aeruginosa [4]; [13]): 16 µg/mL
- MIC S. aureus LMG15975 (S. aureus [5]; [13]): 16 µg/mL
- IC50 (HepG2) (HepG2; HepG2, determined by a CRO): 23 µg/mL

Compound: Table 2 cyclic lipodepsipeptide: R C9H17; DAPA-Leu-DABA-ABA-Thr-DAPA-Phe-Val-Asp [U771]
- MIC A. baumannii LMG1041T (A. baumannii [1]; [13]): 1 µg/mL
- MIC E. cloacae LMG2783T (E. cloacae; [13]): 2 µg/mL
- MIC E. coli LMG15862 (E. coli [2]; [13]): 1 µg/mL
- MIC K. pneumonia LMG20218 (K. pneumoniae [3]; [13]): 2 µg/mL
- MIC P. aeruginosa LMG6395 (P. aeruginosa [4]; [13]): 2 µg/mL
- MIC S. aureus LMG15975 (S. aureus [5]; [13]): 2 µg/mL
- IC50 (HepG2) (HepG2; HepG2, determined by a CRO): 9 µg/mL

Compound: Table 2 cyclic lipodepsipeptide: R C10H21; Asn-Leu-DABA-ABA-Thr-DAPA-Phe-OHVal-Asp [U810]
- MIC A. baumannii LMG1041T (A. baumannii [1]; [13]): 8 µg/mL
- MIC E. cloacae LMG2783T (E. cloacae; [13]): 8 µg/mL
- MIC E. coli LMG15862 (E. coli [2]; [13]): 8 µg/mL
- MIC K. pneumonia LMG20218 (K. pneumoniae [3]; [13]): >32 µg/mL
- MIC P. aeruginosa LMG6395 (P. aeruginosa [4]; [13]): >32 µg/mL
- MIC S. aureus LMG15975 (S. aureus [5]; [13]): 16 µg/mL
- IC50 (HepG2) (HepG2; HepG2, determined by a CRO): 15 µg/mL

Further lines, results first:

- MIC A. baumannii LMG1041T (A. baumannii [1]; [13]): 4 µg/mL
- MIC E. cloacae LMG2783T (E. cloacae; [13]): 8 µg/mL
- MIC E. coli LMG15862 (E. coli [2]; [13]): 8 µg/mL
- MIC K. pneumonia LMG20218 (K. pneumoniae [3]; [13]): 8 µg/mL
- MIC P. aeruginosa LMG6395 (P. aeruginosa [4]; [13]): 8 µg/mL
- MIC S. aureus LMG15975 (S. aureus [5]; [13]): 16 µg/mL
- IC50 (HepG2) (HepG2; HepG2, determined by a CRO): 28 µg/mL
Compound: Table 2 cyclic lipodepsipeptide: R C9H17; DAPA-Leu-DABA-ABA-Thr-DAPA-Phe-OHVal-Asp [U757]

- MIC A. baumannii LMG1041T (A. baumannii [1]; [13]): 8 µg/mL
- MIC E. cloacae LMG2783T (E. cloacae; [13]): 4 µg/mL
- MIC E. coli LMG15862 (E. coli [2]; [13]): 4 µg/mL
- MIC K. pneumonia LMG20218 (K. pneumoniae [3]; [13]): 16 µg/mL
- MIC P. aeruginosa LMG6395 (P. aeruginosa [4]; [13]): 4 µg/mL
- MIC S. aureus LMG15975 (S. aureus [5]; [13]): 16 µg/mL
- IC50 (HepG2) (HepG2; HepG2, determined by a CRO): 9 µg/mL
Compound: Table 2 cyclic lipodepsipeptide: R C9H17; DAPA-Leu-DABA-ABA-Thr-DAPA-Phe-Val-Asp [U775]

- MIC A. baumannii LMG1041T (A. baumannii [1]; [13]): 8 µg/mL
- MIC E. cloacae LMG2783T (E. cloacae; [13]): >32 µg/mL
- MIC E. coli LMG15862 (E. coli [2]; [13]): 16 µg/mL
- MIC K. pneumonia LMG20218 (K. pneumoniae [3]; [13]): >32 µg/mL
- MIC P. aeruginosa LMG6395 (P. aeruginosa [4]; [13]): 16 µg/mL
- MIC S. aureus LMG15975 (S. aureus [5]; [13]): 8 µg/mL
- IC50 (HepG2) (HepG2; HepG2, determined by a CRO): 22 µg/mL
Compound: Table 2 cyclic lipodepsipeptide: R C10H21; Asn-Leu-DABA-ABA-Thr-DAPA-Phe-Val-Asp [U842]

- MIC A. baumannii LMG1041T (A. baumannii [1]; [13]): 8 µg/mL
- MIC E. cloacae LMG2783T (E. cloacae; [13]): 8 µg/mL
- MIC E. coli LMG15862 (E. coli [2]; [13]): 8 µg/mL
- MIC K. pneumonia LMG20218 (K. pneumoniae [3]; [13]): >32 µg/mL
- MIC P. aeruginosa LMG6395 (P. aeruginosa [4]; [13]): 16 µg/mL
- MIC S. aureus LMG15975 (S. aureus [5]; [13]): 16 µg/mL
- IC50 (HepG2) (HepG2; HepG2, determined by a CRO): 12 µg/mL
Compound: Table 2 cyclic lipodepsipeptide: R C10H21; DAPA-Leu-DABA-ABA-Thr-DAPA-Phe-Val-Asp [U800]
